Experiments:
sorghum = assay: Test B preemergence/postemergence greenhouse plant response rating 0 to 10; type: in vivo, Sorghum bicolor; details: 0 to 10 scale
Outline: (§1)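 Planted seeds are treated preemergence with compound dissolved in a non-phytotoxic solvent, while postemergence applications go onto plants of two to eighteen cm. Plants stay in the greenhouse twelve to sixteen days and are then rated visually relative to controls.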

blackgrass = assay: as above; type: in vivo, Alopecurus myosuroides; details: for Plant response rating, Blackgrass: 0 to 10 scale
Outline: as §1

barnyardgrass = assay: Test C flood test plant response rating 0 to 100; type: in vivo, Echinochloa crus-galli; details: for Plant response rating (0 to 100), Barnyardgrass: under POSTEMERGENCE head (flood test species); for Plant response rating, Barnyardgrass: flood test species listed under POSTEMERGENCE, 0 to 100 scale
Source text: (§2) The compounds evaluated in this test were formulated in a non-phytoxic solvent and applied to the soil surface before plant seedlings emerged (preemergence application), to water that covered the soil surface (flood application), and to plants that were in the one-to-four leaf stage (postemergence application). A sandy loam soil was used for the preemergence and postemergence tests, while a silt loam soil was used in the flood test. Water depth was approximately 2.5 cm for the flood test and was maintained at this level for the duration of the test. Plant species in the preemergence and postemergence tests consisted of barley (Hordeum vulgare), bedstraw (Galium aparine), blackgrass (Alopecurus myosuroides), chickweed (Stellaria media), corn (Zea mays), cotton (Gossypium hirsutum), crabgrass (Digitaria sanguinalis), downy brome (Bromus tectorum), giant foxtail (Setaria faberii), lambsquarters (Chenopodium album), morningglory (Ipomoea hederacea), pigweed ([…]), rape (Brassica napus), ryegrass (Lolium multiflorum), sorghum (Sorghum bicolor), soybean (Glycine max), speedwell (Veronica persica), sugar beet (Beta vulgaris), velvetleaf (Abutilon theophrasti), wheat (Triticum aestivum), wild buckwheat (Polygonum convolvulus), and wild oat (Avena fatua). All plant species were planted one day before application of the compound for the preemergence portion-of this test. Plantings of these species were adjusted to produce plants of appropriate size for the post-emergence portion of the test. […] All plant species were grown using normal greenhouse practices. Visual evaluations of injury expressed on treated plants, when compared to untreated controls, were recorded approximately fourteen to twenty one days after application of the test compound. […] A dash (-) response means no test result.

wild oat = assay: Test B preemergence/postemergence greenhouse plant response rating 0 to 10; type: in vivo, Avena fatua; details: 0 to 10 scale
Outline: as §1

rice = assay: as above; type: in vivo, Oryza sativa; details: 0 to 10 scale
Outline: as §1

crabgrass = assay: as above; type: in vivo, Digitaria spp.; details: for Plant response rating, Crabgrass: 0 to 10 scale
Outline: as §1

purple nutsedge = assay: as above; type: in vivo, Cyperus rotundus; details: 0 to 10 scale
Outline: as §1

duck salad = assay: Test C flood test plant response rating 0 to 100; type: in vivo, Heteranthera limosa; details: for Plant response rating Duck salad: flood test species listed under POSTEMERGENCE, 0 to 100 scale
Source text: as §2

lambsquarters = assay: Test C preemergence/postemergence greenhouse plant response rating 0 to 100; type: in vivo, Chenopodium album; details: for Plant response rating Lambsquarters: 0 to 100 scale
Outline: (§3)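 Compounds in non-phytotoxic solvent went onto sandy loam before emergence (seeded one day earlier) or onto plants at the one-to-four leaf stage. Duck salad was treated via flood water (~2.5 cm, maintained) over silt loam.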

cotton = assay: as above; type: in vivo, Gossypium hirsutum; details: for Plant response rating, Cotton: 0 to 100 scale
Outline: as §3

C#CCOc1cc(-c2nn3c(c2Br)CCCC3)c(F)cc1Cl [Compound 26]
Plant response rating, Sorghum (sorghum; POSTEMERGENCE, Rate 50 g/ha): 5
Plant response rating, Sorghum (sorghum; POSTEMERGENCE, Rate 200 g/ha): 6
Plant response rating, Sorghum (sorghum; PREEMERGENCE, Rate 50 g/ha): 2
Plant response rating, Sorghum (sorghum; Rate 200 g/ha, PREEMERGENCE): 4
Plant response rating (0 to 10 scale), Blackgrass (blackgrass; POSTEMERGENCE, Rate 50 g/ha): 4
Plant response rating, Blackgrass (blackgrass; POSTEMERGENCE, Rate 200 g/ha): 5
Plant response rating, Blackgrass (blackgrass; PREEMERGENCE, Rate 50 g/ha): 4
Plant response rating, Blackgrass (blackgrass; Rate 200 g/ha, PREEMERGENCE): 6
Plant response rating (0 to 100), Barnyardgrass (barnyardgrass; Rate 4 g/ha): 100
Plant response rating (0 to 100), Barnyardgrass (barnyardgrass; Rate 16 g/ha): 100
Plant response rating, Barnyardgrass (barnyardgrass; 62 g/ha): 100
Plant response rating, Barnyardgrass (barnyardgrass; 250 g/ha): 100
Plant response rating, Wild oat (wild oat; POSTEMERGENCE, Rate 50 g/ha): 5
Plant response rating, Wild oat (wild oat; POSTEMERGENCE, Rate 200 g/ha): 7
Plant response rating, Wild oat (wild oat; Rate 200 g/ha, PREEMERGENCE): 6
Plant response rating, Rice (rice; POSTEMERGENCE, Rate 50 g/ha): 5
Plant response rating, Rice (rice; POSTEMERGENCE, Rate 200 g/ha): 6
Plant response rating, Rice (rice; PREEMERGENCE, Rate 50 g/ha): 0
Plant response rating, Rice (rice; Rate 200 g/ha, PREEMERGENCE): 3
Plant response rating (0 to 10 scale), Crabgrass (crabgrass; POSTEMERGENCE, Rate 50 g/ha): 2
Plant response rating, Crabgrass (crabgrass; POSTEMERGENCE, Rate 200 g/ha): 6
Plant response rating, Crabgrass (crabgrass; PREEMERGENCE, Rate 50 g/ha): 5
Plant response rating, Crabgrass (crabgrass; Rate 200 g/ha, PREEMERGENCE): 9
Plant response rating, Nutsedge (purple nutsedge; POSTEMERGENCE, Rate 200 g/ha): 4
Plant response rating, Nutsedge (purple nutsedge; PREEMERGENCE, Rate 50 g/ha): 0
Plant response rating, Nutsedge (purple nutsedge; Rate 200 g/ha, PREEMERGENCE): 0
Plant response rating (0 to 100), Duck salad (duck salad; POSTEMERGENCE section, flood test, Rate 4 g/ha): 55
Plant response rating (0 to 100), Duck salad (duck salad; Rate 16 g/ha, under POSTEMERGENCE head (flood test species)): 60
Plant response rating Duck salad (duck salad; 62 g/ha): 70
Plant response rating Duck salad (duck salad; 250 g/ha): 90
Plant response rating Lambsquarters (lambsquarters; POSTEMERGENCE, 62 g/ha): 100
Plant response rating Lambsquarters (lambsquarters; POSTEMERGENCE, 250 g/ha): 100
Plant response rating (0 to 100), Lambsquarters (lambsquarters; POSTEMERGENCE, Rate 4 g/ha): 80
Plant response rating Lambsquarters (lambsquarters; PREEMERGENCE, 62 g/ha): 100
Plant response rating Lambsquarters (lambsquarters; PREEMERGENCE, 250 g/ha): 100
Plant response rating (0 to 100), Lambsquarters (lambsquarters; PREEMERGENCE, Rate 4 g/ha): 80
Plant response rating (0 to 100), Lambsquarters (lambsquarters; Rate 16 g/ha, POSTEMERGENCE): 80
Plant response rating (0 to 100), Lambsquarters (lambsquarters; Rate 16 g/ha, PREEMERGENCE): 100
Plant response rating, Cotton (cotton; POSTEMERGENCE, 62 g/ha): 100
Plant response rating, Cotton (cotton; POSTEMERGENCE, 250 g/ha): 100
Plant response rating (0 to 100), Cotton (cotton; POSTEMERGENCE, Rate 4 g/ha): 100
Plant response rating, Cotton (cotton; PREEMERGENCE, 62 g/ha): 0
Plant response rating, Cotton (cotton; PREEMERGENCE, 250 g/ha): 100
Plant response rating (0 to 100), Cotton (cotton; PREEMERGENCE, Rate 4 g/ha): 0
Plant response rating (0 to 100), Cotton (cotton; Rate 16 g/ha, POSTEMERGENCE): 100
Plant response rating (0 to 100), Cotton (cotton; Rate 16 g/ha, PREEMERGENCE): 0

— US6358885B1, “Substituted phenylheterocyclic herbicides” (Mississippi State University, priority 1992, dated 2002)
